# Experimental data taken from patent US20240398805A1, “QUINAZOLINE DERIVED COMPOUNDS AS EGFR INHIBITORS AND THEIR USES THEREOF” (ACCUTAR BIOTECHNOLOGY INC., priority 2021, published 2024).
# Columns and labels:
# Type in all cases: cell-based
# [1] = system: HCC827 cells; test: Cell growth inhibition (CellTiter-Glo, 3 days) in HCC827; conditions: Homo sapiens, 72 h, 3 days after administration
# How it was run: (§1)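 Growth inhibition was scored by CellTiter-Glo luminescence after 3-day compound exposure at various concentrations. Cells were plated at 5000/well the day before treatment: A431 in DMEM and HCC827 in RPMI, each with 10% FBS.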
# [2] = system: HCC827-YVMA cells (human ERBB2 exon20 insertion mutant A775_G776ins YVMA); test: Cell growth inhibition (CellTiter-Glo, 3 days) in HCC827-YVMA; conditions: 72 h, 3 days after administration
# How it was run: (§2)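 Growth inhibition used a CellTiter-Glo luminescence read-out after 3 days of compound exposure at various concentrations. Cells were plated the day before at 5000/well in RPMI plus 10% FBS. The lines are HCC827 transduced by lentivirus with codon-optimized EGFR ASV or ERBB2 YVMA exon 20 insertions.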
# [3] = system: HCC827-ASV cells (human EGFR exon 20 insertion mutant A769_D770insASV); test: Cell growth inhibition (CellTiter-Glo, 3 days) in HCC827-ASV; conditions: 72 h, 3 days after administration
# How it was run: as §2
# [4] = system: HCC827-SVD cells (human EGFR exon 20 insertion mutant D770_N771 insSVD); test: Cell growth inhibition (CellTiter-Glo, 3 days) in HCC827-SVD; conditions: 72 h, 3 days after administration
# How it was run: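 HCC827 cells carrying lentiviral codon-optimized EGFR D770_N771 insSVD, with endogenous EGFR knocked out by CRISPR (single clone), seeded at 5000 cells/well in RPMI with 10% FBS. Viability read by CellTiter-Glo luminescence.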
# [5] = system: A431 cells; test: Cell growth inhibition (CellTiter-Glo, 3 days) in A431; conditions: Homo sapiens, A-431, 72 h, 3 days after administration
# How it was run: as §1
SMILES,GI50 [1],GI50 [2],GI50 [3],GI50 [4],GI50 [5]
"C=CC(=O)N1CCC(Nc2cc3c(Nc4ccc(Oc5ccnc(N6CCCOCC6)c5)cc4F)ncnc3cc2OC)CC1 [Example 106, 1-(4-((4-((4-((2-(1,4-oxazepan-4-yl)pyridin-4-yl)oxy)-2-fluorophenyl)amino)-7-methoxyquinazolin-6-yl)amino)piperidin-1-yl)prop-2-en-1-one]",100 to 300 nM,< 30 nM,< 30 nM,< 30 nM,≥ 1000 nM
"C=CC(=O)N1CCC(Nc2cc3c(Nc4ccc(OCc5ccc(N6CCOCC6)cn5)cc4F)ncnc3cc2OC)CC1 [Example 107, 1-(4-((4-((2-fluoro-4-((5-morpholinopyridin-2-yl)methoxy)phenyl)amino)-7-methoxyquinazolin-6-yl)amino)piperidin-1-yl)prop-2-en-1-one]",100 to 300 nM,300 to 600 nM,300 to 600 nM,600 to 1000 nM,300 to 600 nM
"C=CC(=O)N1CCC(Nc2cc3c(Nc4ccc(Oc5ccnn5-c5cnc(OC)c(F)c5)cc4F)ncnc3cc2OC)CC1 [Example 109, 1-(4-((4-((2-fluoro-4-((1-(5-fluoro-6-methoxypyridin-3-yl)-1H-pyrazol-5-yl)oxy)phenyl)amino)-7-methoxyquinazolin-6-yl)amino)piperidin-1-yl)prop-2-en-1-one]",< 30 nM,≥ 1000 nM,≥ 1000 nM,≥ 1000 nM,≥ 1000 nM
"C=CC(=O)N1CCC(Nc2cc3c(Nc4ccc(Oc5ccnc(N6CCS(=O)(=O)CC6)c5)cc4F)ncnc3cc2OC)CC1 [Example 112, 1-(4-((4-((4-((2-(1,1-dioxidothiomorpholino)pyridin-4-yl)oxy)-2-fluorophenyl)amino)-7-methoxyquinazolin-6-yl)amino)piperidin-1-yl)prop-2-en-1-one]",≥ 1000 nM,600 to 1000 nM,300 to 600 nM,100 to 300 nM,≥ 1000 nM
"C=CC(=O)N1CCC(Nc2cc3c(Nc4ccc(Oc5ccnc(N6CCN(C)CC6)c5)cc4F)ncnc3cc2OC)CC1 [Example 113, 1-(4-((4-((2-fluoro-4-((2-(4-methylpiperazin-1-yl)pyridin-4-yl)oxy)phenyl)amino)-7-methoxyquinazolin-6-yl)amino)piperidin-1-yl)prop-2-en-1-one]",30 to 60 nM,< 30 nM,< 30 nM,< 30 nM,600 to 1000 nM
"C=CC(=O)N1CCC(Nc2cc3c(Nc4ccc(Oc5ccnc(N(C)CCOC)c5)cc4F)ncnc3cc2OC)CC1 [Example 116, 1-(4-((4-((2-fluoro-4-((2-((2-methoxyethyl)(methyl)amino)pyridin-4-yl)oxy)phenyl)amino)-7-methoxyquinazolin-6-yl)amino)piperidin-1-yl)prop-2-en-1-one]",300 to 600 nM,60 to 100 nM,100 to 300 nM,100 to 300 nM,600 to 1000 nM
"C=CC(=O)N1CCC(Nc2cc3c(Nc4ccc(Oc5ccnc(N(CCOC)CCOC)c5)cc4F)ncnc3cc2OC)CC1 [Example 117, 1-(4-((4-((4-((2-(bis(2-methoxyethyl)amino)pyridin-4-yl)oxy)-2-fluorophenyl)amino)-7-methoxyquinazolin-6-yl)amino)piperidin-1-yl)prop-2-en-1-one]",300 to 600 nM,60 to 100 nM,100 to 300 nM,100 to 300 nM,≥ 1000 nM
"C=CC(=O)N1CCC(Nc2cc3c(Nc4ccc(Oc5ccnc(N6CCN(C(C)=O)CC6)c5)cc4F)ncnc3cc2OC)CC1 [Example 120, 1-(4-((4-((4-((2-(4-acetylpiperazin-1-yl)pyridin-4-yl)oxy)-2-fluorophenyl)amino)-7-methoxyquinazolin-6-yl)amino)piperidin-1-yl)prop-2-en-1-one]",≥ 1000 nM,600 to 1000 nM,100 to 300 nM,100 to 300 nM,≥ 1000 nM
"C=CC(=O)N1CCC(Nc2cc3c(Nc4ccc(Oc5ccnc(N6CCNCC6)c5)cc4F)ncnc3cc2OC)CC1 [Example 123, 1-(4-((4-((2-fluoro-4-((2-(piperazin-1-yl)pyridin-4-yl)oxy)phenyl)amino)-7-methoxyquinazolin-6-yl)amino)piperidin-1-yl)prop-2-en-1-one]",≥ 1000 nM,600 to 1000 nM,300 to 600 nM,300 to 600 nM,≥ 1000 nM

# Other lines, results leading:
GI50 [1],GI50 [2],GI50 [3],GI50 [4],GI50 [5],SMILES
300 to 600 nM,< 30 nM,< 30 nM,< 30 nM,≥ 1000 nM,"C=CC(=O)N1CCC(Nc2cc3c(Nc4ccc(Oc5ccnc(N6C[C@H](C)O[C@@H](C)C6)c5)cc4F)ncnc3cc2OC)CC1 [Example 105, 1-(4-((4-((4-((2-((2S,6S)-2,6-dimethylmorpholino)pyridin-4-yl)oxy)-2-fluorophenyl)amino)-7-methoxyquinazolin-6-yl)amino)piperidin-1-yl)prop-2-en-1-one]"
300 to 600 nM,100 to 300 nM,100 to 300 nM,300 to 600 nM,≥ 1000 nM,"C=CC(=O)N1CCC(Nc2cc3c(Nc4ccc(Oc5cc(N6C[C@@H](C)O[C@@H](C)C6)ncc5Cl)cc4F)ncnc3cc2OC)CC1 [Example 108, 1-(4-((4-((4-((5-chloro-2-((2R,6S)-2,6-dimethylmorpholino)pyridin-4-yl)oxy)-2-fluorophenyl)amino)-7-methoxyquinazolin-6-yl)amino)piperidin-1-yl)prop-2-en-1-one]"
< 30 nM,≥ 1000 nM,≥ 1000 nM,≥ 1000 nM,100 to 300 nM,"C=CC(=O)N1CCC(Nc2cc3c(Nc4ccc(Oc5ncc(N6C[C@@H](C)O[C@@H](C)C6)cn5)cc4F)ncnc3cc2OC)CC1 [Example 110, 1-(4-((4-((4-((5-((2R,6S)-2,6-dimethylmorpholino)pyrimidin-2-yl)oxy)-2-fluorophenyl)amino)-7-methoxyquinazolin-6-yl)amino)piperidin-1-yl)prop-2-en-1-one]"
30 to 60 nM,300 to 600 nM,300 to 600 nM,300 to 600 nM,600 to 1000 nM,"C=CC(=O)N1CCC(Nc2cc3c(Nc4ccc(Oc5ccc(N6C[C@@H](C)O[C@@H](C)C6)cn5)cc4F)ncnc3cc2OC)CC1 [Example 111, 1-(4-((4-((4-((5-((2R,6S)-2,6-dimethylmorpholino)pyridin-2-yl)oxy)-2-fluorophenyl)amino)-7-methoxyquinazolin-6-yl)amino)piperidin-1-yl)prop-2-en-1-one]"
300 to 600 nM,100 to 300 nM,60 to 100 nM,100 to 300 nM,≥ 1000 nM,"C=CC(=O)N1CCC(Nc2cc3c(Nc4ccc(Oc5ccnc(N6CC[C@@H](OC)C6)c5)cc4F)ncnc3cc2OC)CC1 [Example 114, (R)-1-(4-((4-((2-fluoro-4-((2-(3-methoxypyrrolidin-1-yl)pyridin-4-yl)oxy)phenyl)amino)-7-methoxyquinazolin-6-yl)amino)piperidin-1-yl)prop-2-en-1-one]"
300 to 600 nM,100 to 300 nM,100 to 300 nM,60 to 100 nM,300 to 600 nM,"C=CC(=O)N1CCC(Nc2cc3c(Nc4ccc(Oc5ccnc(N6CC[C@H](OC)C6)c5)cc4F)ncnc3cc2OC)CC1 [Example 115, (S)-1-(4-((4-((2-fluoro-4-((2-(3-methoxypyrrolidin-1-yl)pyridin-4-yl)oxy)phenyl)amino)-7-methoxyquinazolin-6-yl)amino)piperidin-1-yl)prop-2-en-1-one]"
300 to 600 nM,30 to 60 nM,30 to 60 nM,30 to 60 nM,≥ 1000 nM,"C=CC(=O)N1CCC(Nc2cc3c(Nc4ccc(Oc5ccnc(N6CC7(COC7)C6)c5)cc4F)ncnc3cc2OC)CC1 [Example 118, 1-(4-((4-((4-((2-(2-oxa-6-azaspiro[3.3]heptan-6-yl)pyridin-4-yl)oxy)-2-fluorophenyl)amino)-7-methoxyquinazolin-6-yl)amino)piperidin-1-yl)prop-2-en-1-one]"
300 to 600 nM,100 to 300 nM,60 to 100 nM,100 to 300 nM,100 to 300 nM,"C=CC(=O)N1CCC(Nc2cc3c(Nc4ccc(Oc5ccnc(N6CC(OC)C6)c5)cc4F)ncnc3cc2OC)CC1 [Example 119, 1-(4-((4-((2-fluoro-4-((2-(3-methoxyazetidin-1-yl)pyridin-4-yl)oxy)phenyl)amino)-7-methoxyquinazolin-6-yl)amino)piperidin-1-yl)prop-2-en-1-one]"
300 to 600 nM,< 30 nM,< 30 nM,< 30 nM,≥ 1000 nM,"C=CC(=O)N1CCC(Nc2cc3c(Nc4ccc(Oc5ccnc(N6CCC(O)CC6)c5)cc4F)ncnc3cc2OC)CC1 [Example 121, 1-(4-((4-((2-fluoro-4-((2-(4-hydroxypiperidin-1-yl)pyridin-4-yl)oxy)phenyl)amino)-7-methoxyquinazolin-6-yl)amino)piperidin-1-yl)prop-2-en-1-one]"
600 to 1000 nM,≥ 1000 nM,600 to 1000 nM,600 to 1000 nM,≥ 1000 nM,"C=CC(=O)N1CCC(Nc2cc3c(Nc4ccc(Oc5ccnc(N6CCC(N(C)C)CC6)c5)cc4F)ncnc3cc2OC)CC1 [Example 122, 1-(4-((4-((4-((2-(4-(dimethylamino)piperidin-1-yl)pyridin-4-yl)oxy)-2-fluorophenyl)amino)-7-methoxyquinazolin-6-yl)amino)piperidin-1-yl)prop-2-en-1-one]"
